Assay results published in patent US8569372B2, “Method for preventing or treating a disease, disorder or condition induced by retina ischemia” (priority 2011, dated 2013).

Test system: VEGF
Test: ELISA of VEGF protein in RGC-5 cells under H2O2 oxidative stress
Assay type: cell-based
Settings: 100 μM SAC 15-minute pre-treatment, 500 μM H2O2 24 hours; control 91.91±21.72, H2O2 250.55±39.63; n=6
Description: In the enzyme-linked immunosorbent assay (ELISA), the cells (2.5×10^4 in each well) were plated into 96-well plates. Each well contains 200 μl of DMEM (control) without or with H2O2. Next, the cells were incubated at 37° C. for 1 day and then shifted to serum free medium for the following day. In order to stimulate oxidative stress, 500 μM H2O2 (Sigma-Aldrich 18304/k0250, St Louis, Mo., USA) was then added for 24 hours as described elsewhere. Depending on the experimental protocol, SAC or vehicle was added to some samples 15 minutes before adding H2O2. […] Total protein was determined using a bicinchoninic acid protein kit (Thermo Fisher Scientific Inc., IL, U.S.A.). The HIF-1 Alpha/VEGF/MMP-9 levels in the cells/medium were measured using various ELISA kits, namely HIF-1 Alpha (Uscn Life Science Inc., Wuhan 430056, China); VEGF-A (BMS277/2, Bender […], Austria) and MMP-9 Duoset (D911, R&D, Minneapolis, Minn., U.S.A.). […] The HIF-1 Alpha/VEGF/MMP-9 concentration of each sample was determined by constructing a standard curve using 100 μl of sample diluent containing various amounts of HIF-1 Alpha/VEGF/MMP-9 pure protein (0-1000 pg/ml). […] The absorbance (optical intensity, O.D.) was detected at 450 nm by spectrophotometer (ELx800, Biotek, Winooski, Vt., U.S.A.). […]

Q: With `C=CCSC[C@H](N)C(=O)O` [SAC, S-allyl L-cysteine] as the compound, how does the “VEGF protein level (ELISA)” value read?
A: 121.61 ± 12.54 pg/mL
